Assay results: patent publication US9603922B2, “Modulation of NKT cell activity with antigen-loaded CD1d molecules” (VACCINEX, INC., priority 2007, dated 2017)

B1: αGalCer/sCD1d: soluble monomeric mouse β2m-CD1d, His-tagged, loaded with αGalCer (protein)
chain: IQKTPQIQVYSRHPPENGKPNILNCYVTQFHPPHIEIQMLKNGKKIPKVEMSDMSFSKDWSFYILAHTEFTPTETDTYACRVKHASMAEPKTVYWDRDMGGGGSGGSGSGGGSEAQQKNYTFRCLQMSSFANRSWSRTDSVVWLGDLQTHRWSNDSATISFTKPWSQGKLSNQQWEKLQHMFQVYRVSFTRDIQELVKMMSPKEDYPIEIQLSAGCEMYPGNASESFLHVAFQGKYVVRFWGTSWQTVPGAPSWLDLPIKVLNADQGTSATVQMLLNDTCPLFVRGLLEAGKSDLEKQEKPVAWLSSVPSSADGHRQLVCHVSGFYPKPVWVMWMRGDQEQQGTHRGDFLPNADETWYLQATLDVEAGEEAGLACRVKHSSLGGQDIILYWSSGSGGHHHHHH

How the values were obtained:
B16-HER2 cells = assay: Precoating experiment, lung metastases of B16-HER2 cells; assay type: in vivo, mouse; settings: cells pre-incubated with agent, injected i.v. into naïve mice
Method: Quantification of lung metastasis. Metastatic nodule surface area was measured on 2560×1920 pixels photographs of the whole organs, taken on an Zeiss STEMI SV11 dissection microscope (Carl Zeiss, Jena, Germany) equipped with a PROGRES-C10plus Color Camera (Jenoptik, Jena, Germany). Each image was analyzed with the ImageJ program (rsb.info.nih.gov/ij/) using a k-means clustering algorithm (plugin available on ij-plugins.sourceforge.net). Images were segmented into 9 segments cluster tolerance 1×10−4, randomization seed: 48) and the appropriate segments were selected based on the color of the metastasis reaching the surface of the organ. The area of the sum of selected color segments was expressed as percentage of the area occupied by the lungs. Both sides of the lung were analyzed. This method takes into account both the number and the size of the tumor nodules.

iNKT cells in PBMC = assay: iNKT frequency in peripheral blood during systemic treatment; assay type: in vivo, mouse; settings: PBMC 3 days after third i.v. injection
Method: FIG. 3: iNKT expansion in blood during systemic treatment with αGalCer loaded recombinant CD1d molecules. Mice were bled after the third injection of either PBS (control) αGalCer (0.4 μg), αGalCer/CD1d-anti-Her2 fusion protein (Fusion, 40 μg), or αGalCer/sCD1d (sCD1d, 20 μg). NKT cells were stained in PBMCs using the CD1d-Tetramer-PE and anti CD3 FITC antibody. a representative dot blot of one mouse from each group. b graph representing several mice per group expressed as CD1d tetramer positive and CD3+ cells as percentage of total PBMC.
Increased frequency of iNKT cells during systemic treatment: normally iNKT cells are not detectable in mouse peripheral blood as shown on FIG. 3. In contrast, they became clearly detectable upon systemic treatment with recombinant αGalCer/CD1d molecules, whereas there was no change with αGalCer alone. FIG. 3a gives representative dot plots of FACS staining with CD1d-tetramer+anti-CD3 on PBMC 3 days after the third injection with either PBS, free αGalCer, αGalCer/CD1d-anti HER2, or αGalCer/sCD1d (five mice per group, i.v., injection every 3 days).

[1] = test system: splenocytes, CD11c+ CD40+ DC; assay: Mature DC (CD11c+ CD40+) in splenocyte cultures of OVA-immunized mice; assay type: cell-based, mouse; settings: same cultures, following restimulation
Method: FIG. 8: αGalCer loaded sCD1d acts as a strong adjuvant for the expansion of antigen-specific T cells upon active immunization. a kinetics of expansion of H-2K^b/OVA specific CTLs. Mice were primed with 200 μg ovalbumin either as such (i.v.) or with MONTANIDE™ adjuvant (3:7 ratio, s.c.) or with 1 μg αGalCer or 20 μg αGalCer/sCD1d (i.v.). Mice were bled every 5-7 days and PBMC were stained with H-2K^b/oVA tetramer+anti-CD8. Results were expressed as tetramer+ and CD8+ […] as a percentage of total CD8+ T cells. Mice were boosted with OVA peptide (20 μg) on day 22 employing the same adjuvants and route of injection as for primary immunization. b Ten days later, mice were sacrificed and splenocytes were cultured another five days either with no stimuli or with the same stimuli and adjuvants as for the in vivo boost. Frequency of OVA specific T cells was measured as in a. c The presence of mature DC in the same cultures as in b was analyzed by surface staining with anti CD11c and anti CD40 antibodies.
Together with active OVA immunization: An adjuvant effect has previously been attributed to free αGalCer and its potential use in vaccination has been proposed (Silk, J. D., et al. J Clin Invest 114:1800-1811 (2004)). […]

Molecule	Lung metastases of precoated B16-HER2 cells (B16-HER2 cells)	Frequency of iNKT cells in peripheral blood (iNKT cells in PBMC)	Frequency of mature DC (CD11c+CD40+) [1]
CCCCCCCCCCCCCCCCCCCCCCCCCC(=O)N[C@@H](CO[C@H]1O[C@H](CO)[C@H](O)[C@H](O)[C@H]1O)[C@H](O)[C@H](O)CCCCCCCCCCCCCC [αGalCer, α-galactosylceramide, reference compound]	completely inhibited tumor development	no change	–
B1	–	–	increased frequency of mature DC
